According to ChEMBL document CHEMBL4118077, “Synthesis of thiazole linked indolyl-3-glyoxylamide derivatives as tubulin polymerization inhibitors” (Eur J Med Chem, 2017):
Values belong to the compound of their own block, whether it stands above or below them. Activity calls are given as the source filed them. No cut-off for these calls is given here.

What was measured:
[1] = tested on: PC-3; assay: Antiproliferative activity against human PC3 cells after 48 hrs by MTT assay; type: functional, cell-based; conditions: PC-3, 48 h
[2] = tested on: A549; assay: Antiproliferative activity against human A549 cells after 48 hrs by MTT assay; type: functional, cell-based; conditions: A549, 48 h
[3] = tested on: DU-145; assay: Antiproliferative activity against human DU145 cells after 48 hrs by MTT assay; type: functional, cell-based; conditions: DU-145, 48 h
[4] = tested on: HCT-15; assay: Antiproliferative activity against human HCT15 cells after 48 hrs by MTT assay; type: functional, cell-based; conditions: HCT-15, 48 h
[5] = organism: Sus scrofa; assay: Inhibition of porcine brain tubulin polymerization at 5 uM measured for 1 hr by fluorescence assay relative to control
[6] = tested on: DU-145; assay: Induction of morphological changes in human DU145 cells assessed as cell shrinkage after 48 hrs by acridine orange/ethidium bromide staining based fluorescence microscopic method; type: functional
[7] = tested on: DU-145; assay: Induction of apoptosis in human DU145 cells assessed as late apoptotic cells at 200 nM after 24 hrs by Annexin V-FITC/propidium iodide staining based flow cytometry (reference value: 6.55%); type: functional
[8] = tested on: DU-145; assay: Induction of morphological changes in human DU145 cells assessed as apoptotic body formation after 48 hrs by acridine orange/ethidium bromide staining based fluorescence microscopic method; type: functional, cell-based
[9] = tested on: DU-145; assay: Induction of apoptosis in human DU145 cells assessed as late apoptotic cells at 400 nM after 24 hrs by Annexin V-FITC/propidium iodide staining based flow cytometry (reference value: 6.55%); type: functional
[10] = tested on: DU-145; assay: Induction of apoptosis in human DU145 cells assessed as live cells at 200 nM after 24 hrs by Annexin V-FITC/propidium iodide staining based flow cytometry (reference value: 85.71%); type: functional
[11] = tested on: DU-145; assay: Cell cycle arrest in human DU145 cells assessed as accumulation at S phase at 400 nM after 24 hrs by propidium iodide staining based flow cytometry (reference value: 14.8%); type: functional
[12] = tested on: DU-145; assay: Cell cycle arrest in human DU145 cells assessed as accumulation at G2/M phase at 200 nM after 24 hrs by propidium iodide staining based flow cytometry (reference value: 25.88%); type: functional
[13] = tested on: DU-145; assay: Cell cycle arrest in human DU145 cells assessed as accumulation at S phase at 200 nM after 24 hrs by propidium iodide staining based flow cytometry (reference value: 14.8%); type: functional
[14] = tested on: DU-145; assay: Induction of apoptosis in human DU145 cells assessed as early apoptotic cells at 200 nM after 24 hrs by Annexin V-FITC/propidium iodide staining based flow cytometry (reference value: 5.92%); type: functional
[15] = tested on: DU-145; assay: Induction of mitochondrial membrane potential loss in human DU145 cells after 24 hrs by JC-1 staining based flow cytometry; type: functional, cell-based
[16] = tested on: DU-145; assay: Induction of intracellular mitochondrial superoxide generation in human DU145 cells after 48 hrs by MitoSOX staining based fluorescence microscopic method; type: functional, cell-based
[17] = tested on: DU-145; assay: Cell cycle arrest in human DU145 cells assessed as accumulation at G0/G1 phase at 400 nM after 24 hrs by propidium iodide staining based flow cytometry (reference value: 63.77%); type: functional
[18] = tested on: DU-145; assay: Antimigratory activity against human DU145 cells assessed as inhibition of migration to scratch area at 400 nM after 24 hrs by phase contrast microscopic method relative to control; type: functional; conditions: DU-145, 24 h
[19] = tested on: DU-145; assay: Cell cycle arrest in human DU145 cells assessed as accumulation at G2/M phase at 400 nM after 24 hrs by propidium iodide staining based flow cytometry (reference value: 25.88%); type: functional
[20] = tested on: DU-145; assay: Induction of morphological changes in human DU145 cells assessed as membrane blebbing after 48 hrs by acridine orange/ethidium bromide staining based fluorescence microscopic method; type: functional, cell-based
[21] = tested on: DU-145; assay: Cell cycle arrest in human DU145 cells assessed as accumulation at subG1 phase at 400 nM after 24 hrs by propidium iodide staining based flow cytometry (reference value: 0.43%); type: functional
[22] = tested on: DU-145; assay: Cell cycle arrest in human DU145 cells assessed as accumulation at subG1 phase at 100 nM after 24 hrs by propidium iodide staining based flow cytometry (reference value: 0.43%); type: functional
[23] = tested on: DU-145; assay: Cell cycle arrest in human DU145 cells assessed as accumulation at subG1 phase at 200 nM after 24 hrs by propidium iodide staining based flow cytometry (reference value: 0.43%); type: functional
[24] = tested on: DU-145; assay: Induction of apoptosis in human DU145 cells assessed as live cells at 400 nM after 24 hrs by Annexin V-FITC/propidium iodide staining based flow cytometry (reference value: 85.71%); type: functional
[25] = tested on: DU-145; assay: Antimigratory activity against human DU145 cells assessed as inhibition of migration to scratch area at 100 nM after 24 hrs by phase contrast microscopic method relative to control; type: functional; conditions: DU-145, 24 h
[26] = tested on: DU-145; assay: Cell cycle arrest in human DU145 cells assessed as accumulation at G2/M phase after 24 hrs by propidium iodide staining based flow cytometry; type: functional
[27] = tested on: DU-145; assay: Induction of apoptosis in human DU145 cells assessed as necrotic cells at 400 nM after 24 hrs by Annexin V-FITC/propidium iodide staining based flow cytometry (reference value: 1.82%); type: functional
[28] = tested on: DU-145; assay: Induction of apoptosis in human DU145 cells assessed as early apoptotic cells at 400 nM after 24 hrs by Annexin V-FITC/propidium iodide staining based flow cytometry (reference value: 5.92%); type: functional
[29] = tested on: RWPE-1; assay: Cytotoxicity against human RWPE1 cells assessed as reduction in cell viability after 48 hrs by MTT assay; type: cell-based; conditions: RWPE-1, 48 h
[30] = tested on: DU-145; assay: Induction of apoptosis in human DU145 cells after 24 hrs by Annexin V-FITC/propidium iodide staining based flow cytometry; type: functional, cell-based
[31] = tested on: DU-145; assay: Induction of morphological changes in human DU145 cells assessed as nuclear fragmentation at 100 to 200 nM after 48 hrs by DAPI staining based fluorescence microscopic method; type: functional, cell-based
[32] = tested on: DU-145; assay: Induction of apoptosis in human DU145 cells assessed as necrotic cells at 200 nM after 24 hrs by Annexin V-FITC/propidium iodide staining based flow cytometry (reference value: 1.82%); type: functional
[33] = tested on: DU-145; assay: Induction of mitochondrial membrane potential loss in human DU145 cells assessed as depolarized cell population at 400 nM after 24 hrs by JC-1 staining based flow cytometry (reference value: 22.28%); type: functional
[34] = tested on: DU-145; assay: Induction of mitochondrial membrane potential loss in human DU145 cells assessed as depolarized cell population at 200 nM after 24 hrs by JC-1 staining based flow cytometry (reference value: 22.28%); type: functional
[35] = tested on: DU-145; assay: Cell cycle arrest in human DU145 cells assessed as accumulation at S phase at 100 nM after 24 hrs by propidium iodide staining based flow cytometry (reference value: 14.8%); type: functional
[36] = tested on: DU-145; assay: Cell cycle arrest in human DU145 cells assessed as accumulation at G2/M phase at 100 nM after 24 hrs by propidium iodide staining based flow cytometry (reference value: 25.88%); type: functional
[37] = tested on: DU-145; assay: Cell cycle arrest in human DU145 cells assessed as accumulation at G0/G1 phase at 100 nM after 24 hrs by propidium iodide staining based flow cytometry (reference value: 63.77%); type: functional
[38] = tested on: DU-145; assay: Antimigratory activity against human DU145 cells assessed as inhibition of migration to scratch area after 24 hrs by phase contrast microscopic method; type: functional, cell-based
[39] = tested on: DU-145; assay: Induction of mitochondrial membrane potential loss in human DU145 cells assessed as intact membrane cell population at 400 nM after 24 hrs by JC-1 staining based flow cytometry (reference value: 77.24%); type: functional
[40] = tested on: DU-145; assay: Antimigratory activity against human DU145 cells assessed as inhibition of migration to scratch area at 200 nM after 24 hrs by phase contrast microscopic method relative to control; type: functional; conditions: DU-145, 24 h
[41] = tested on: DU-145; assay: Induction of morphological changes in human DU145 cells assessed as nuclear condensation at 100 to 200 nM after 48 hrs by DAPI staining based fluorescence microscopic method; type: functional, cell-based
[42] = tested on: DU-145; assay: Induction of mitochondrial membrane potential loss in human DU145 cells assessed as intact membrane cell population at 200 nM after 24 hrs by JC-1 staining based flow cytometry (reference value: 77.24%); type: functional
[43] = tested on: DU-145; assay: Cell cycle arrest in human DU145 cells assessed as accumulation at G0/G1 phase at 200 nM after 24 hrs by propidium iodide staining based flow cytometry (reference value: 63.77%); type: functional

IC50 [1]: > 50 µM
IC50 [2]: 41.8 µM
IC50 [3]: > 50 µM
Compound: O=C(Cn1cc(C(=O)C(=O)NC2CC2)c2ccccc21)Nc1nc(-c2ccccc2)cs1

IC50 [1]: 9.4 µM
IC50 [4]: > 50 µM
IC50 [2]: > 50 µM
IC50 [3]: 5.5 µM
Compound: COc1ccc2sc(NC(=O)Cn3cc(C(=O)C(=O)NC4CC4)c4ccccc43)nc2c1

IC50 [1]: > 50 µM
IC50 [4]: > 50 µM
IC50 [2]: > 50 µM
IC50 [3]: > 50 µM
Compound: O=C(CCn1cc(C(=O)C(=O)N2CCCCC2)c2ccccc21)Nc1nccs1

IC50 [1]: > 50 µM
IC50 [4]: > 50 µM
IC50 [2]: > 50 µM
inhibition [5]: 12.2%
IC50 [3]: > 50 µM
Compound: CCOC(=O)c1nc(NC(=O)CCn2cc(C(=O)C(=O)N3CCCCC3)c3ccccc32)sc1C

Further lines, the compound ahead of its results:

Compound: CCOC(=O)c1nc(NC(=O)Cn2cc(C(=O)C(=O)N3CCCCC3)c3ccccc32)sc1C
IC50 [1]: 8.2 µM
IC50 [2]: > 50 µM
IC50 [3]: 3.21 µM

Compound: O=C(CCn1cc(C(=O)C(=O)N2CCCCC2)c2ccccc21)Nc1nc(-c2ccccc2)cs1
IC50 [1]: > 50 µM
IC50 [4]: > 50 µM
IC50 [2]: > 50 µM
IC50 [3]: > 50 µM

Compound: CCOC(=O)c1nc(NC(=O)Cn2cc(C(=O)C(=O)NC3CC3)c3ccccc32)sc1C
IC50 [1]: 8.5 µM
IC50 [4]: 10.3 µM
IC50 [2]: 20.9 µM
inhibition [5]: 21.3%
IC50 [3]: 4.6 µM

Compound: Cc1ccc(-c2csc(NC(=O)Cn3cc(C(=O)C(=O)Nc4ccccc4)c4cc(Br)ccc43)n2)cc1
IC50 [1]: > 50 µM
IC50 [4]: > 50 µM
IC50 [2]: > 50 µM
IC50 [3]: 10.2 µM

Compound: COc1ccc2sc(NC(=O)Cn3cc(C(=O)C(=O)Nc4ccccc4)c4ccccc43)nc2c1
IC50 [1]: 0.361 µM
Activity [6]: Dose-dependent effect
Activity [7]: 5.81%
Activity [8]: Dose-dependent effect
Activity [9]: 33.63%
Activity [10]: 84.72%
IC50 [4]: 0.18 µM
Activity [11]: 5.51%
Activity [12]: 34.07%
Activity [13]: 8.26%
Activity [14]: 5.89%
Activity [15]: Dose-dependent effect
Activity [16]: Dose-dependent effect
Activity [17]: 16.32%
inhibition at 0.4 µM [18]: 34.8%
Activity [19]: 50.9%
IC50 [2]: 2.1 µM
Activity [20]: Dose-dependent effect
Activity [21]: 26.89%
Activity [22]: 17.37%
Activity [23]: 5.88%
Activity [24]: 45.47%
inhibition at 0.1 µM [25]: 74.8%
Activity [26]: Dose-dependent effect
inhibition [5]: 68.5%
Activity [27]: 4.06%
Activity [28]: 16.84%
IC50 [3]: 0.093 µM
IC50 [29]: 0.71 µM
Activity [30]: Dose-dependent effect
Activity [31]: Active
Activity [32]: 3.58%
Activity [33]: 64.65%
Activity [34]: 57.05%
Activity [35]: 5.8%
Activity [36]: 30.15%
Activity [37]: 47.69%
inhibition [38]: Dose-dependent effect
Activity [39]: 34.21%
inhibition at 0.2 µM [40]: 44%
Activity [41]: Active
Activity [42]: 42.39%
Activity [43]: 51.89%

Compound: O=C(Cn1cc(C(=O)C(=O)Nc2ccccc2)c2cc(Br)ccc21)Nc1nccs1
IC50 [1]: > 50 µM
IC50 [4]: > 50 µM
IC50 [2]: 43.7 µM
IC50 [3]: 25.5 µM
